# Test results reported in the supplement of paper PMC11208160.
# Experiment: recombinant UMI read abundance after kanamycin selection (control-corrected) (log10(CPM+1)); higher = more efficient recombination; extreme values may be limits of the assay; sequences stand for … in AGTGCAGAGAAAATCGGCCAGTTTTCTCTGCCTGCAGTCCGCATGCCGTGGGACCCCTTGGGTTCTAACCTGTTGCCTAGATTTATGCAGCGGACTGCCTTTCTCCCAAAGTGATAAACCGG…AGGTTGGTTTCACT; site = the 11-nt donor
# How it was run: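 The measure is log10(CPM+1) for recombinant UMIs. These were PCR-amplified across the donor–target junction and sequenced after Escherichia coli carrying a donor and donor-binding-loop pair library and a target plasmid with T7-inducible IS621 bridge recombinase was plated on IPTG (0.07 mM) plus kanamycin or unselected. CPM were averaged over two replicates and scaled by control-derived factors.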
# 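Further: IS621 bridge recombinase in Escherichia coli cells against a fixed T5 target plasmid.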
row,Sequence,recombinant UMI read abundance (log10)
1,CGGGAACCATGGACCGGTTTTCCCGGTAATCCGTATTTGCT (site CGGGAACCTAG),0
2,CGGGAACCATGGACCGGTTTTCCCGGTAATCCGTATTTGCT (site CGGGAACCTAT),0
3,CGGGAGCCATGGACCGGTTTTCCCGGTAATCCGTATTTGAT (site CGGGAACCTAT),0
4,CGGGAGCCATGGACCGGTTTTCCCGGTAATCCGTATTTGAT (site CGGGACCCTAT),0.00515
5,CGGGAGCCATGGACCGGTTTTCCCGGTAATCCGTATTTGAT (site CGGGAGCCTAT),0.266
6,CGGGAGCCATGGACCGGTTTTCCCGGTAATCCGTATTTGAT (site CGGGATCCTAT),0.0423
7,CGGGAGTCATGGACCGGTTTTCCCGGTAATCCGTATTTGCT (site CGGGAGTCTAG),2.6
8,CGGGAGTCATGGACCGGTTTTCCCGGTAATCCGTATTTGCT (site CGGGAGTCTCG),2.06
9,CGGGAGTCATGGACCGGTTTTCCCGGTAATCCGTATTTGCT (site CGGGAGTCTGG),2.26
10,CGGGAGTCATGGACCGGTTTTCCCGGTAATCCGTATTTGCT (site CGGGAGTCTTG),1.47
11,CGGGAGTCATGGACCGGTTTTCCCGGTAATCCGTATTTGTC (site CGGGAGTCTGA),3.19
12,CGGGAGTCATGGACCGGTTTTCCCGGTAATCCGTATTTGTC (site CGGGAGTCTGC),1.37
13,CGGGAGTCATGGACCGGTTTTCCCGGTAATCCGTATTTGTC (site CGGGAGTCTGG),2.03
14,CGGGAGTCATGGACCGGTTTTCCCGGTAATCCGTATTTGTC (site CGGGAGTCTGT),1.9
15,CGGGCAGCATGGACCGGTTTTCCCGGTAATCCGTATTTGTC (site CGGGCAGCTGA),1.93
16,CGGGCCTCATGGACCGGTTTTCCCGGTAATCCGTATTTGTT (site CGGGCCTCTAA),2.54
17,CGGGGGTCATGGACCGGTTTTCCCGGTAATCCGTATTTGCC (site CGGGAGTCTGG),0.865
18,CGGGGGTCATGGACCGGTTTTCCCGGTAATCCGTATTTGCC (site CGGGCGTCTGG),1.7
19,CGGGGGTCATGGACCGGTTTTCCCGGTAATCCGTATTTGCC (site CGGGGGTCTGG),1.86

row,Sequence,recombinant UMI read abundance (log10)
1,CGGGGGTCATGGACCGGTTTTCCCGGTAATCCGTATTTGCC (site CGGGTGTCTGG),0.6
2,CGGGTACCATGGACCGGTTTTCCCGGTAATCCGTATTTGAT (site CGGGAACCTAT),0
3,CGGGTACCATGGACCGGTTTTCCCGGTAATCCGTATTTGAT (site CGGGCACCTAT),0
4,CGGGTACCATGGACCGGTTTTCCCGGTAATCCGTATTTGAT (site CGGGGACCTAT),0
5,CGGGTACCATGGACCGGTTTTCCCGGTAATCCGTATTTGAT (site CGGGTACCTAT),0.00441
6,CGGGTGTCATGGACCGGTTTTCCCGGTAATCCGTATTTGTT (site CGGGTGTCTAA),3.07
7,CGGGTTGCATGGACCGGTTTTCCCGGTAATCCGTATTTGAG (site CGGGTTGCTCT),1.79
8,CGGTACTCATGGACCGGTTTTCCCGGTAATCCGTATTTGGC (site CGGTACTCTGC),3.19
9,CGGTAGCCATGGACCGGTTTTCCCGGTAATCCGTATTTGTT (site CGGAATCCTAA),0.00596
10,CGGTAGCCATGGACCGGTTTTCCCGGTAATCCGTATTTGTT (site CGGTAGCCTAA),0.237
11,CGGTCATCATGGACCGGTTTTCCCGGTAATCCGTATTTGCT (site CGATCATCTAG),1.07
12,CGGTCATCATGGACCGGTTTTCCCGGTAATCCGTATTTGCT (site CGCTCATCTAG),0
13,CGGTCATCATGGACCGGTTTTCCCGGTAATCCGTATTTGCT (site CGGACATCTAG),0
14,CGGTCATCATGGACCGGTTTTCCCGGTAATCCGTATTTGCT (site CGGCCATCTAG),2.29
15,CGGTCATCATGGACCGGTTTTCCCGGTAATCCGTATTTGCT (site CGGGCATCTAG),0
16,CGGTCATCATGGACCGGTTTTCCCGGTAATCCGTATTTGCT (site CGGTCATCTAG),1.7
17,CGGTCATCATGGACCGGTTTTCCCGGTAATCCGTATTTGCT (site CGTTCATCTAG),0.224
18,CGGTCCGCATGGACCGGTTTTCCCGGTAATCCGTATTTGCG (site CGGTCCGCTCG),0.155
19,CGGTCTTCATGGACCGGTTTTCCCGGTAATCCGTATTTGCT (site CGATCATCTAG),0
